From PMC5458547, “Discovery of first-in-class reversible dual small molecule inhibitors against G9a and DNMTs in hematological malignancies” (Nature Communications, 2017)

Tests used:
[1] = target: T1, Human HDAC1 (Homo sapiens, UniProt Q13547); test: HDAC1 enzyme activity assay; format: biochemical
T1 construct: purchased DiscoverX KINOMEscan (kinases); BPS Bioscience (epigenetic targets)

[2] = test system: H23; test: Cell proliferation assay (MTS); format: cell-based; details: Homo sapiens, NCI-H23; NSCLC
[3] = target: T2, PRMT6 (Homo sapiens, UniProt Q96LA8); test: Epigenetics selectivity panel (BPS Bioscience); format: biochemical
T2 construct: purchased BPS Bioscience (contract panel)

[4] = target: T3, JMJD2B (Homo sapiens, UniProt O94953); test: Epigenetics selectivity panel (BPS Bioscience); format: biochemical
T3 construct: purchased DiscoverX KINOMEscan (kinases); BPS Bioscience (epigenetic targets)

[5] = Liver microsomal stability; format: in vitro ADME; details: mouse, mouse liver microsomes; read-out: Liver Microsomal Stability. Estimation T1/2
[6] = test system: A498; test: Cell proliferation assay (MTS); format: cell-based; details: Homo sapiens, Renal
[7] = test system: SK-MEL-19; test: Cell proliferation assay (MTS); format: cell-based; details: Homo sapiens, SK-MEL19; Melanoma
[8] = target: T4, SETD2 (Homo sapiens, UniProt Q9BYW2); test: Epigenetics selectivity panel (BPS Bioscience); format: biochemical
T4 construct: purchased DiscoverX KINOMEscan (kinases); BPS Bioscience (epigenetic targets)

[9] = target: T5, EZH2 (Homo sapiens, UniProt Q15910); test: Epigenetics selectivity panel (BPS Bioscience); format: biochemical
T5 construct: purchased DiscoverX KINOMEscan (kinases); BPS Bioscience (epigenetic targets)

[10] = test system: MOLT-4; test: Cell proliferation assay (MTS); format: cell-based; details: Homo sapiens, ALL, 48 h
[11] = test system: PC3; test: Cell proliferation assay (MTS); format: cell-based; details: Homo sapiens, PC-3; Prostate
[12] = test system: H187; test: Cell proliferation assay (MTS); format: cell-based; details: Homo sapiens, NCI-H187; SCLC
[13] = target: T6, GLP (Homo sapiens, UniProt Q9H9B1); test: Radioligand binding assay (3H-SAM), Reaction Biology; format: biochemical
T6 construct: purchased BPS Bioscience (contract panel)
T6 sequence (Q9H9B1 1-1298): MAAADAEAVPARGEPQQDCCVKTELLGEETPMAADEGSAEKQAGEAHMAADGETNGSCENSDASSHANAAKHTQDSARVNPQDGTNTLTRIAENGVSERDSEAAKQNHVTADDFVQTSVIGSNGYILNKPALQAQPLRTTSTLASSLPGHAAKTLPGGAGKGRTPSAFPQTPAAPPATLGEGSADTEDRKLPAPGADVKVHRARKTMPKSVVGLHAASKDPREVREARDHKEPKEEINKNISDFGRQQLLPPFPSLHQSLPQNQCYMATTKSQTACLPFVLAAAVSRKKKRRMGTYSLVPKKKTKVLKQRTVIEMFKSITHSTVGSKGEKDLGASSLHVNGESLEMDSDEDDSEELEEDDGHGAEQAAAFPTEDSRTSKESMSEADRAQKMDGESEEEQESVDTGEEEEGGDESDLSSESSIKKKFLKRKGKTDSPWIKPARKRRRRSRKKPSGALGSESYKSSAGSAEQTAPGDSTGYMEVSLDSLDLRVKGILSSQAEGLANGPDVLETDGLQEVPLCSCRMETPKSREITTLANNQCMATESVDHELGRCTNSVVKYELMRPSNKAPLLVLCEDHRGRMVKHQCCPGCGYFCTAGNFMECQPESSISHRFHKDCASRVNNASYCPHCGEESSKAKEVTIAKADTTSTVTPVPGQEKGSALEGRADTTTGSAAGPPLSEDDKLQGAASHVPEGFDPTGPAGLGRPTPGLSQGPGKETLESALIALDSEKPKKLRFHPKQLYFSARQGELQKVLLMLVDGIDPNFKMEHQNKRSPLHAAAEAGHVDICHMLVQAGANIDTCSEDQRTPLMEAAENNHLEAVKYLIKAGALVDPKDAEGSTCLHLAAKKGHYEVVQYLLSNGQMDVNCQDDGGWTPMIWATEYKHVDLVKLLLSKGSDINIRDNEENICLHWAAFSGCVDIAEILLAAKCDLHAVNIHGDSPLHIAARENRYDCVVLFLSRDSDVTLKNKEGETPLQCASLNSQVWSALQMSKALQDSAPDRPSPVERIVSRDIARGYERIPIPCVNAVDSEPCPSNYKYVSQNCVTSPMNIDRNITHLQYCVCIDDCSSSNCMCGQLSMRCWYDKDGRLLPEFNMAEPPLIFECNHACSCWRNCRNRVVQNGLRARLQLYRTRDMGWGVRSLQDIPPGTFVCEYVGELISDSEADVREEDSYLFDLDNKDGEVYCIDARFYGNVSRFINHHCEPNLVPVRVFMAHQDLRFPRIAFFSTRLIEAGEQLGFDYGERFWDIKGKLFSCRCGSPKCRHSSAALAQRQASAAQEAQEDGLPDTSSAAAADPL
Method: The radioligand binding assay against G9a, DNMT1 and GLP was performed by Reaction Biology Corporation (http://www.reactionbiology.com).

[14] = in vivo; design: species or system mice; details: mouse, iv
[15] = Cytotoxicity in THLE-2 cells (ATP); format: cell-based; details: human; THLE-2, 72 h exposure; read-out: LC50
[16] = test system: MV4-11; test: Cell proliferation assay (MTS); format: cell-based; details: Homo sapiens, MV4-11; AML, 48 h; read-out: GI50
[17] = test system: DU145; test: Cell proliferation assay (MTS); format: cell-based; details: Homo sapiens, DU-145; Prostate
[18] = test system: A375; test: Cell proliferation assay (MTS); format: cell-based; details: Homo sapiens, A-375; Melanoma
[19] = target: T7, BRD2(BD1+BD2) (Homo sapiens, UniProt P25440); test: Epigenetics selectivity panel (BPS Bioscience); format: binding
T7 construct: purchased DiscoverX KINOMEscan (kinases); BPS Bioscience (epigenetic targets)

[20] = test system: SK-MEL-28; test: Cell proliferation assay (MTS); format: cell-based; details: Homo sapiens, Melanoma
[21] = target: T8, JMJD3 (Homo sapiens, UniProt O15054); test: Epigenetics selectivity panel (BPS Bioscience); format: biochemical
T8 construct: purchased DiscoverX KINOMEscan (kinases); BPS Bioscience (epigenetic targets)

[22] = target: T9, Jarid1A (Homo sapiens, UniProt P29375); test: Epigenetics selectivity panel (BPS Bioscience); format: biochemical
T9 construct: purchased DiscoverX KINOMEscan (kinases); BPS Bioscience (epigenetic targets)

[23] = test system: KG-1; test: Cell proliferation assay (MTS); format: cell-based; details: Homo sapiens, AML, 48 h
[24] = target: T10, BAZ2B (Homo sapiens, UniProt Q9UIF8); test: Epigenetics selectivity panel (BPS Bioscience); format: binding
T10 construct: purchased DiscoverX KINOMEscan (kinases); BPS Bioscience (epigenetic targets)

[25] = test system: MY; test: Cell proliferation assay (MTS); format: cell-based; details: Homo sapiens; ALL, 48 h
[26] = test system: WM-35; test: Cell proliferation assay (MTS); format: cell-based; details: Homo sapiens, WM35; Melanoma

T2 sequence (Q96LA8 whole entry): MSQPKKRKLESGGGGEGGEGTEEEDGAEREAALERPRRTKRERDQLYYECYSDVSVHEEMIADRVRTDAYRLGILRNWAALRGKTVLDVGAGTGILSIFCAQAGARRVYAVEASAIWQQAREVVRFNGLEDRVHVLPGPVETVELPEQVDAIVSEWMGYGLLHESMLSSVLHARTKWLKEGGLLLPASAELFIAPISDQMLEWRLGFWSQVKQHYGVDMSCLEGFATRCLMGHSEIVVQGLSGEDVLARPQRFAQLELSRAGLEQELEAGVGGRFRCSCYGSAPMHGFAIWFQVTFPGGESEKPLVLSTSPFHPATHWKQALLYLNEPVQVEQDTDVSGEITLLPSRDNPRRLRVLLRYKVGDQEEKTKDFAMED
T7 sequence (P25440 65-459 limits assumed): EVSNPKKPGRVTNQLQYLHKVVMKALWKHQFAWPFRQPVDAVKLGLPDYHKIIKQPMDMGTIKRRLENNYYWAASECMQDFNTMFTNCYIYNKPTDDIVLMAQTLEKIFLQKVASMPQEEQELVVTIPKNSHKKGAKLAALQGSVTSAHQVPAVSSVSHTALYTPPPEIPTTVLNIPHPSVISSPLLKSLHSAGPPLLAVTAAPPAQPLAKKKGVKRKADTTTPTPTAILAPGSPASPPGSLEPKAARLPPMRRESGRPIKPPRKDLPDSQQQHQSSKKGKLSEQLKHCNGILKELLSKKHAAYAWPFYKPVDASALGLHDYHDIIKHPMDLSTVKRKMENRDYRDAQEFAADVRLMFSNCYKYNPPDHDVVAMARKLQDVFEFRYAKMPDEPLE
T10 sequence (Q9UIF8 whole entry): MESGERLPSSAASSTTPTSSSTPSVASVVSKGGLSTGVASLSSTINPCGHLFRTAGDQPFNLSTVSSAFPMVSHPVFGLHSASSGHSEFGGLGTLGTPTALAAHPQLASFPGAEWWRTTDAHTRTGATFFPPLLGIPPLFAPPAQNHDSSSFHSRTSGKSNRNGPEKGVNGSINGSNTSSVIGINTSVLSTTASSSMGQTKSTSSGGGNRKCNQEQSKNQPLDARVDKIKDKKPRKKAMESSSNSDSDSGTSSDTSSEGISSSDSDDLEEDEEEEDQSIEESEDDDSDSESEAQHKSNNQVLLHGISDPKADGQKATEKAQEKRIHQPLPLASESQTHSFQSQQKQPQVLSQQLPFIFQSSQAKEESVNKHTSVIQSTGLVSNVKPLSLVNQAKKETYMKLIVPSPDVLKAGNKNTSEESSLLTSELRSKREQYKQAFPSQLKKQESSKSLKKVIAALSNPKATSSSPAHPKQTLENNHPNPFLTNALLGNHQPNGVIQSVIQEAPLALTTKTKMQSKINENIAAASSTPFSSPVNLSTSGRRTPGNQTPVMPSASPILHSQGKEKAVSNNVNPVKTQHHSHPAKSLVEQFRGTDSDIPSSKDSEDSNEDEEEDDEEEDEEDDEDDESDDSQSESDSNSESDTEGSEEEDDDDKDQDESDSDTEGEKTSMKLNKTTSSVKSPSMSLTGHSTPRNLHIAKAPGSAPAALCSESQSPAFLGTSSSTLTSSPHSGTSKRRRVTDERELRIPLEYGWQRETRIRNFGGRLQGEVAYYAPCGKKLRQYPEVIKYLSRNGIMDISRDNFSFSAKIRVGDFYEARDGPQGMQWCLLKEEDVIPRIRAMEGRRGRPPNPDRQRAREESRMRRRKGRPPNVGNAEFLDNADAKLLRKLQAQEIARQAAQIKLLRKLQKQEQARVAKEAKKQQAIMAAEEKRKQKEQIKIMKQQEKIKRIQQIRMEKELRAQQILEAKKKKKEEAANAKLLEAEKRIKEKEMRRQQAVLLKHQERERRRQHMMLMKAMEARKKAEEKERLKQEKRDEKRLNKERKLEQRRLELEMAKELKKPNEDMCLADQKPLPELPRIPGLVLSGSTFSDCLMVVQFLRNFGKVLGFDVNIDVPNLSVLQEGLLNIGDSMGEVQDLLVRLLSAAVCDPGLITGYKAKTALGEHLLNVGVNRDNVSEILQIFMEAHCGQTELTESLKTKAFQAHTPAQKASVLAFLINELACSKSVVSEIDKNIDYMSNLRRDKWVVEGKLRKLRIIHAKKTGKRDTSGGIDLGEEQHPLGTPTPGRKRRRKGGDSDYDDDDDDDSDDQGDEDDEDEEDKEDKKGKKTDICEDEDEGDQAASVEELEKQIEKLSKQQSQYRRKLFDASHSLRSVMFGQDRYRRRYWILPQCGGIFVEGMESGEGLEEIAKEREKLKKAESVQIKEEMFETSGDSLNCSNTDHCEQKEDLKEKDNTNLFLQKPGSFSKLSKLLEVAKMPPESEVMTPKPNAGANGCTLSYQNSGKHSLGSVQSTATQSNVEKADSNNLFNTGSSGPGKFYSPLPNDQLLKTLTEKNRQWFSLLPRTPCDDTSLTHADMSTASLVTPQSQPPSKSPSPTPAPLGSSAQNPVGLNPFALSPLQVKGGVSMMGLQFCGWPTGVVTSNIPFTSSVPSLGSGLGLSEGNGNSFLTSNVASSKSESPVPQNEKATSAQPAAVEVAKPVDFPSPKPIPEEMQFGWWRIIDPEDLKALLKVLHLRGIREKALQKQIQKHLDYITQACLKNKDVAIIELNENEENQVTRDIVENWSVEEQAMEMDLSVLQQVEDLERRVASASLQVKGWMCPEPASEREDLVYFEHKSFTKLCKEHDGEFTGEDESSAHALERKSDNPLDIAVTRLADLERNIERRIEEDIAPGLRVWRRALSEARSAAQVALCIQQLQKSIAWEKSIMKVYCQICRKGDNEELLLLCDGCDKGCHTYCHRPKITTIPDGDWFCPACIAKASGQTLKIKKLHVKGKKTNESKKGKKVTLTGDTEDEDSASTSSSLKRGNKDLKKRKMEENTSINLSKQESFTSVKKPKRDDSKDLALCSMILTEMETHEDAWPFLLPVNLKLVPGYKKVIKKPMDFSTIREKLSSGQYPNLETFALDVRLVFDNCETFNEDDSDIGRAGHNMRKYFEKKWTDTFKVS
T3 sequence (O94953 whole entry): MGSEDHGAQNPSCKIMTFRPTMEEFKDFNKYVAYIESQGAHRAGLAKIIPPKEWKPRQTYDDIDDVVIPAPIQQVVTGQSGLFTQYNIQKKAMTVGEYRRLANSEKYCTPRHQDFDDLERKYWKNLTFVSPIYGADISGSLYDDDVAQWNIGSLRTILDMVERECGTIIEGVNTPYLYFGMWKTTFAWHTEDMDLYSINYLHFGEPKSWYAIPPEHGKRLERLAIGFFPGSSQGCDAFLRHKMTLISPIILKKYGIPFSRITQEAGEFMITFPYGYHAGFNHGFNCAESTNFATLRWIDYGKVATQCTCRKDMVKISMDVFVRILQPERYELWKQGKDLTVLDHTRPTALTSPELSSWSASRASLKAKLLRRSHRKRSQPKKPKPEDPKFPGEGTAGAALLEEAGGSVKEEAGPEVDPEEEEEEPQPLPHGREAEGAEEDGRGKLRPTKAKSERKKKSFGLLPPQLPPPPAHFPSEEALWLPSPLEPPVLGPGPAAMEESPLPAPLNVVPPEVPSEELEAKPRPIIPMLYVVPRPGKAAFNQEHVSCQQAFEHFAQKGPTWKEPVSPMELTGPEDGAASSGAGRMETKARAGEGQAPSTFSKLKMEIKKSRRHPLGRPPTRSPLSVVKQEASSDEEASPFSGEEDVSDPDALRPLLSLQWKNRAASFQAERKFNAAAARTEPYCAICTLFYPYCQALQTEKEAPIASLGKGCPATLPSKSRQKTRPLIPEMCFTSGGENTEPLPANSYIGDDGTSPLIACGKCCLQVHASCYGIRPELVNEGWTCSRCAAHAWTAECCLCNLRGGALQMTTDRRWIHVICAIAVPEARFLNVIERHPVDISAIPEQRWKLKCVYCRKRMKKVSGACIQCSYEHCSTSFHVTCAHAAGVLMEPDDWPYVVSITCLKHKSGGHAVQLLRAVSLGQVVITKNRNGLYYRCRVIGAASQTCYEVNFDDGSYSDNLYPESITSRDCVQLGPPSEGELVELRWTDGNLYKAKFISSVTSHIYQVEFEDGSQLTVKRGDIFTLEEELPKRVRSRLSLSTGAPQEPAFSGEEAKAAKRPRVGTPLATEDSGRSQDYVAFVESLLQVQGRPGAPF
T1 sequence (Q13547 whole entry): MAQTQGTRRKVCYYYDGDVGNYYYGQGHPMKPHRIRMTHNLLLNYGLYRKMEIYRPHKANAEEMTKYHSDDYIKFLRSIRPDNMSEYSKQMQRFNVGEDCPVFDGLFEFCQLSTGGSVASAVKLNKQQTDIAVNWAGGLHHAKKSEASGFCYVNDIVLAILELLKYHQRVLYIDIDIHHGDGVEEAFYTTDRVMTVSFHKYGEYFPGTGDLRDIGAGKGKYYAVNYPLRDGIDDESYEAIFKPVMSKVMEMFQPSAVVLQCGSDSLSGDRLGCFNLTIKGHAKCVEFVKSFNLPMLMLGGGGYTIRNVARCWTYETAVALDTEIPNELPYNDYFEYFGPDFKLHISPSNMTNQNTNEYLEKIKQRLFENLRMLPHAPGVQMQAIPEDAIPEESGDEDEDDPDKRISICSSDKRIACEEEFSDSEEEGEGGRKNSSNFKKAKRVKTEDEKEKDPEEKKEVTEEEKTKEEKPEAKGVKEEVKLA

Compound | inhibition at 10 µM [1] [%] | GI50 [2] [µM] | inhibition at 10 µM [3] [%] | inhibition at 10 µM [4] [%] | half-life at 1 µM [5] [h] | GI50 [6] [µM] | GI50 [7] [µM] | inhibition at 10 µM [8] [%] | inhibition at 10 µM [9] [%] | GI50 [10] [µM] | GI50 [11] [µM] | GI50 [12] [µM] | IC50 [13] [µM] | CC50 at 72 h [15] [µM] | GI50 [16] [µM] | GI50 [17] [µM] | GI50 [18] [µM] | inhibition at 10 µM [19] [%] | GI50 [20] [µM] | inhibition at 10 µM [21] [%] | further results
COc1cc2c(NC3CCN(C)CC3)cc(-c3ccc(C)o3)nc2cc1OCCCN1CCCC1 [CM-272, 6-methoxy-2-(5-methyl-2-furyl)-N-(1-methyl-4-piperidyl)-7-(3-pyrrolidin-1-ylpropoxy)quinolin-4-amine] | 0 | 2.49 | 82 | 2 | 0.587 | 4.76 | 1.04 | 8 | 1 | > 5 | 0.59 | 1.64 | 0.007 | 1.78 | 0.269 | 0.762 | 0.357 | 0 | 0.874 | 9 | IC50 ([3]; BPS): 3 µM; clearance ([14]; […]): 15.2 mL/min/kg; half-life ([14]; […]): 24.2 h; inhibition at 10 µM [22]: 2%; GI50 [23]: 3.54 µM; inhibition at 10 µM [24]: 0%; GI50 [25]: 0.816 µM; GI50 [26]: 0.854 µM
COc1cc2c(NCC3CCN(C)CC3)cc(-c3ccc(C)o3)nc2cc1OCCCN1CCCC1 [CM-579, 6-methoxy-2-(5-methyl-2-furyl)-N-[(1-methyl-4-piperidyl)methyl]-7-(3-pyrrolidin-1-ylpropoxy)quinolin-4-amine] | 0 | 1.14 | 40 | 40 | 0.178 | 0.441 | 0.161 | 0 | 0 | > 10 | 0.307 | 1.97 | 0.067 | 1.3 | 0.385 | 0.223 | 0.048 | 0 | 1.39 | 3 | AUC(0-t) ([14]; 1 mg/kg): 0.268 µM·h; Cmax ([14]; 1 mg/kg): 191 nM; clearance ([14]; 1 mg/kg): 95 mL/min/kg; half-life ([14]; 1 mg/kg): 6.26 h; inhibition at 10 µM [22]: 27%; GI50 [23]: > 10 µM; inhibition at 10 µM [24]: 0%; GI50 [25]: 3.95 µM; GI50 [26]: 0.168 µM
